Test results: ChEMBL document CHEMBL5291721, “A preclinical secondary pharmacology resource illuminates target-adverse drug reaction associations of marketed drugs” (Nat Commun, 2023)

Tests used:
Acetylcholinesterase = Acetylcholinesterase (Homo sapiens, UniProt P22303); assay type: functional
[1] = target: T1, Alpha-2A adrenergic receptor (Homo sapiens, UniProt P08913)
T1 sequence (P08913 whole entry): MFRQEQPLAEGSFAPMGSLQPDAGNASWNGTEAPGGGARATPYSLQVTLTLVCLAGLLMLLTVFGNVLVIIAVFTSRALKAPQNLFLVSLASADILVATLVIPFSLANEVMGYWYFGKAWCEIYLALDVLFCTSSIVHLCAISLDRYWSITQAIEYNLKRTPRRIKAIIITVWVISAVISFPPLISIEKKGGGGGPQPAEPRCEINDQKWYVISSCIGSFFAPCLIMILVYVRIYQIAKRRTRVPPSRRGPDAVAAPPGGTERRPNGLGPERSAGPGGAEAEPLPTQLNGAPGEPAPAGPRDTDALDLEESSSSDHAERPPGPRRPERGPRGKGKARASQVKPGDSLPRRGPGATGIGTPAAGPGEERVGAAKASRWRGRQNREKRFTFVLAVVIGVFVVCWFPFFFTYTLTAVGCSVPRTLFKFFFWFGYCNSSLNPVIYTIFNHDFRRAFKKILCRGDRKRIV

D(3) dopamine receptor = D(3) dopamine receptor (Homo sapiens, UniProt P35462)
Sequence of D(3) dopamine receptor (P35462 whole entry): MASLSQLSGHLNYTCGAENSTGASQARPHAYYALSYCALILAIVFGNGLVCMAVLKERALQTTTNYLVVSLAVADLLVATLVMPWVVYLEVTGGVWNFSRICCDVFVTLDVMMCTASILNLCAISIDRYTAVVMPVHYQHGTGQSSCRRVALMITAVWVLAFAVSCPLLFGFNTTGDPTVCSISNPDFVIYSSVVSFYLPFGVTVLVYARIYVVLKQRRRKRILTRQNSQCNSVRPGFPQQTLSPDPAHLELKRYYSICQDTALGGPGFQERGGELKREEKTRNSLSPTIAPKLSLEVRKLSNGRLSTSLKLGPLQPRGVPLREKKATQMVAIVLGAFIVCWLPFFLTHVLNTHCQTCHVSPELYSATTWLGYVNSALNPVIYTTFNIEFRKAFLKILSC

Prothrombin = Prothrombin (Homo sapiens, UniProt P00734); assay type: functional
Histamine H3 receptor = Histamine H3 receptor (Homo sapiens, UniProt Q9Y5N1)
Sequence of Histamine H3 receptor (Q9Y5N1 whole entry): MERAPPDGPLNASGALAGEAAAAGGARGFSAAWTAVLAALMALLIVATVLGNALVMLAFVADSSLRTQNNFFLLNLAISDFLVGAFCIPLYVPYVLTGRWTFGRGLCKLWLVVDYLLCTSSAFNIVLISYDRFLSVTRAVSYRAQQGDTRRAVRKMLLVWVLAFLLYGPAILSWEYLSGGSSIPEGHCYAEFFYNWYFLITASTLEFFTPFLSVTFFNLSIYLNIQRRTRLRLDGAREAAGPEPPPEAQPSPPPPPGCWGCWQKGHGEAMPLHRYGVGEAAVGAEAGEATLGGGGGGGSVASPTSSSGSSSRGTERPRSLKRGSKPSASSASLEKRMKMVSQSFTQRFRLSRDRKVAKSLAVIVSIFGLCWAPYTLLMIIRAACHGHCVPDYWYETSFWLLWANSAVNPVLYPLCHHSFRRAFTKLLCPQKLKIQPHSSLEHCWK

[2] = target: T2, 5-hydroxytryptamine receptor 1A (Homo sapiens, UniProt P08908)
T2 sequence (P08908 whole entry): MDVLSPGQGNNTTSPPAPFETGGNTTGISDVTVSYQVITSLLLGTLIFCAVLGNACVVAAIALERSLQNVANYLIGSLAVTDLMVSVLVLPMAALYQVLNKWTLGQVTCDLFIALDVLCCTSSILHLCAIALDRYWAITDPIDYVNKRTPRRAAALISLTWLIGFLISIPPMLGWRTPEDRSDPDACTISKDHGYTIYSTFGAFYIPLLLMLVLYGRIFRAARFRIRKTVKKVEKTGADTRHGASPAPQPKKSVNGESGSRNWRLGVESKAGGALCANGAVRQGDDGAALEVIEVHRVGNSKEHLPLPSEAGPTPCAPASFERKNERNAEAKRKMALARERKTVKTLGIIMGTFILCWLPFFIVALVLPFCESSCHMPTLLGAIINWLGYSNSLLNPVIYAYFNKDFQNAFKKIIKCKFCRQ

[3] = target: T3, Amine oxidase [flavin-containing] A (Homo sapiens, UniProt P21397); assay type: functional
T3 sequence (P21397 whole entry): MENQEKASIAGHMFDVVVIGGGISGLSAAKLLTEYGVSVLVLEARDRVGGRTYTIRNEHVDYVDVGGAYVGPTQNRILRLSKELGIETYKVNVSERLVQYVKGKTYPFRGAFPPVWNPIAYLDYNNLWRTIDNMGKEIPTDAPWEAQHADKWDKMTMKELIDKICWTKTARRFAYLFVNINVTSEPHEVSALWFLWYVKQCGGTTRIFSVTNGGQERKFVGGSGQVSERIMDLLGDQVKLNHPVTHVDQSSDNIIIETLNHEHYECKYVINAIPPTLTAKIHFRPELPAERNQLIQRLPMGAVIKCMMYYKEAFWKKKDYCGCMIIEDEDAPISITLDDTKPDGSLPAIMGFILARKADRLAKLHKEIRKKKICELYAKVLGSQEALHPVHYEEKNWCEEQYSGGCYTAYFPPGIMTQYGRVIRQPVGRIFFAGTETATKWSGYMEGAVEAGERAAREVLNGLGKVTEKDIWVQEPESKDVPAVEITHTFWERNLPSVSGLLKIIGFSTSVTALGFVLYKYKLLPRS

Mu-type opioid receptor = Mu-type opioid receptor (Homo sapiens, UniProt P35372)
Sequence of Mu-type opioid receptor (P35372 whole entry): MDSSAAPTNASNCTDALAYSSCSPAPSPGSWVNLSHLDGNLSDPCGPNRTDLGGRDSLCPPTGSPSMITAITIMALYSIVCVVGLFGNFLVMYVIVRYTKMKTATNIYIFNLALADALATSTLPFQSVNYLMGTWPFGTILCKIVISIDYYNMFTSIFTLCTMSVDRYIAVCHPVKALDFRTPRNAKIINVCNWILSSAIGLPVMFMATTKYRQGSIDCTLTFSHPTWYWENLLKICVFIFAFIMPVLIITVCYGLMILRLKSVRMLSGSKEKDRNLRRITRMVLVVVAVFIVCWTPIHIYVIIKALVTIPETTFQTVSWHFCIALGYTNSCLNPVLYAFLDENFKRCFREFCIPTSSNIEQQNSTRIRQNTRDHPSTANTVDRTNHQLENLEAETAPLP

[4] = target: cGMP-inhibited 3',5'-cyclic phosphodiesterase 3A (Homo sapiens, UniProt Q14432); assay type: functional
Sequence of cGMP-inhibited 3',5'-cyclic phosphodiesterase 3A (Q14432 whole entry): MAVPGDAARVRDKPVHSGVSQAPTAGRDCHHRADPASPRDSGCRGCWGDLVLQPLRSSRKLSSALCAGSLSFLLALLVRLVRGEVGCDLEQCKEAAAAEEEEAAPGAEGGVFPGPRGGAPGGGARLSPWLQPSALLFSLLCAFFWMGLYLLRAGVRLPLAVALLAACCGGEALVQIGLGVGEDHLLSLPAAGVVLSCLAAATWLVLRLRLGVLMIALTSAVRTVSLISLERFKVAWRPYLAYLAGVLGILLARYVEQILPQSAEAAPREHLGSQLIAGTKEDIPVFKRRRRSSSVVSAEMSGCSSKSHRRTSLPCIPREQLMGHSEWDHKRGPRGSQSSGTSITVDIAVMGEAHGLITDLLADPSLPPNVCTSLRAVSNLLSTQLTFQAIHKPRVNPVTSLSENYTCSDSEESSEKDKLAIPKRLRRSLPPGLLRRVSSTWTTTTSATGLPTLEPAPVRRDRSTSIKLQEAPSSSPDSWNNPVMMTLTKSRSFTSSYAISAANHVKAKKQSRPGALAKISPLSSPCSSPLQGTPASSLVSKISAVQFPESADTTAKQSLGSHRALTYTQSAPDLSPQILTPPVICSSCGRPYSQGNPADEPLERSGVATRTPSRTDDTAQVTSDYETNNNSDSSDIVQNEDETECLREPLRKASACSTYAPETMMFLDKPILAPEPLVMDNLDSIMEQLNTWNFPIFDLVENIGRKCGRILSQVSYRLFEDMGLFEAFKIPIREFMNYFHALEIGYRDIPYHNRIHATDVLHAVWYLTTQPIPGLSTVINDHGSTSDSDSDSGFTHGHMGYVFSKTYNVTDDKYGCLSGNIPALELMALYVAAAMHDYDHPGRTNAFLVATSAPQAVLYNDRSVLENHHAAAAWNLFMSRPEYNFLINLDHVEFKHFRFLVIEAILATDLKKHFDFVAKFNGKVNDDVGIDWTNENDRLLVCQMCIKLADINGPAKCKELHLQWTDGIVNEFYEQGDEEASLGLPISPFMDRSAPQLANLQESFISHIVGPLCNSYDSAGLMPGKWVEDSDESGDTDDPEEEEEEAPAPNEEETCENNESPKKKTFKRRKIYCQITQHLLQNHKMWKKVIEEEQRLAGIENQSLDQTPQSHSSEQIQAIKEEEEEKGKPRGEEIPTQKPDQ

[5] = target: 3',5'-cyclic-AMP phosphodiesterase 4A (Homo sapiens, UniProt P27815); assay type: functional
Sequence of 3',5'-cyclic-AMP phosphodiesterase 4A (P27815 whole entry): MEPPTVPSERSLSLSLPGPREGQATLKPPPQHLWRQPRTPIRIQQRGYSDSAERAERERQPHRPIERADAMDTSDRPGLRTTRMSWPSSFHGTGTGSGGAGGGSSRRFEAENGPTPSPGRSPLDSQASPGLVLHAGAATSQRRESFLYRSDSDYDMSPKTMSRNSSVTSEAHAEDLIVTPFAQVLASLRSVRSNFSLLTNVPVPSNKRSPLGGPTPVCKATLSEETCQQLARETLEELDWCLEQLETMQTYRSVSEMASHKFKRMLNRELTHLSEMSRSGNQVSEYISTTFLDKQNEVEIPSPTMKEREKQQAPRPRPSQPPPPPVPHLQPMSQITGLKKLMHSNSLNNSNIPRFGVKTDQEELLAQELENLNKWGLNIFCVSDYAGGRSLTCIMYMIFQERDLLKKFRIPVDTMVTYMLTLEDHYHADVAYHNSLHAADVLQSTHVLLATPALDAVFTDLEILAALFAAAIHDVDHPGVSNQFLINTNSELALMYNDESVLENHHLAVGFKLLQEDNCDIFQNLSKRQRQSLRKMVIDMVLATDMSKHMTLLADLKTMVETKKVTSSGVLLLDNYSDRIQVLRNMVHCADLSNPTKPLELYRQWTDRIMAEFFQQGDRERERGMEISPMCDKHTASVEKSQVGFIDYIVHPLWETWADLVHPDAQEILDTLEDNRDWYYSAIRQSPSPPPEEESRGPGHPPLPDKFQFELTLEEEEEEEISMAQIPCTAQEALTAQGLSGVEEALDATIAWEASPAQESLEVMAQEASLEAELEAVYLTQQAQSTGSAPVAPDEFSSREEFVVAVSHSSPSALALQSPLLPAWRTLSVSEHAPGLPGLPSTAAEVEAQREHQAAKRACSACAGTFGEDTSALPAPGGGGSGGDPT

[6] = target: T4, Prostaglandin G/H synthase 1 (Homo sapiens, UniProt P23219); assay type: functional
T4 sequence (P23219 whole entry): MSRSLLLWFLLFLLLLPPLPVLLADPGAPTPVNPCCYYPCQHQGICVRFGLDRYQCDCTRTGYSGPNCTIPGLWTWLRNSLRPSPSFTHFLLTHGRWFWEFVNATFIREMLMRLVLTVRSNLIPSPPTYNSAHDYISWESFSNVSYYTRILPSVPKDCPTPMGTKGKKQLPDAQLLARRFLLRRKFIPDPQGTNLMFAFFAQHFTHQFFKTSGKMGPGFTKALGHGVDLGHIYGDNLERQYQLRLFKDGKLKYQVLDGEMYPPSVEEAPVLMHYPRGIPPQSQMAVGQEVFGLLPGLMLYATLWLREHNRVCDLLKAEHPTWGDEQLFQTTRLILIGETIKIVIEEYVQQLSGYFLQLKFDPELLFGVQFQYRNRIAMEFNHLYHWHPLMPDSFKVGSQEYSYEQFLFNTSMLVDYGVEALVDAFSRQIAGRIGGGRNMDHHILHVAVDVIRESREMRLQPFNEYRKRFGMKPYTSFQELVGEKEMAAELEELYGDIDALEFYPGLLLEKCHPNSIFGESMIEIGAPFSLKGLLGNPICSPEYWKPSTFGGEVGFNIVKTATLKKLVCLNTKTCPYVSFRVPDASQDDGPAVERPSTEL

[7] = target: T4, Prostaglandin G/H synthase 1; assay type: functional; remark: listed apart in the source
Thromboxane A2 receptor [8] = target: T5, Thromboxane A2 receptor (Homo sapiens, UniProt P21731); assay type: functional, cell-based
T5 sequence (P21731 whole entry): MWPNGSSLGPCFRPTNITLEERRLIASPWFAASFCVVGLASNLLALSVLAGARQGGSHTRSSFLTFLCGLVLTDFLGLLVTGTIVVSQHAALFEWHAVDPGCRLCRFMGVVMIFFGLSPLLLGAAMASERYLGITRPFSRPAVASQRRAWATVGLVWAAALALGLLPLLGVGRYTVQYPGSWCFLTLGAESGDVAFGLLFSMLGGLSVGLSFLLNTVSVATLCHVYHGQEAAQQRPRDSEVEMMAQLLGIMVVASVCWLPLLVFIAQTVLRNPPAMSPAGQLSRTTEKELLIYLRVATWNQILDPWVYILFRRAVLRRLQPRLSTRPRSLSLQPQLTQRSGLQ

Thromboxane A2 receptor [9] = target: T5, Thromboxane A2 receptor; assay type: functional, cell-based; remark: listed apart in the source
[10] = target: T6, Muscarinic acetylcholine receptor M2 (Homo sapiens, UniProt P08172)
T6 sequence (P08172 whole entry): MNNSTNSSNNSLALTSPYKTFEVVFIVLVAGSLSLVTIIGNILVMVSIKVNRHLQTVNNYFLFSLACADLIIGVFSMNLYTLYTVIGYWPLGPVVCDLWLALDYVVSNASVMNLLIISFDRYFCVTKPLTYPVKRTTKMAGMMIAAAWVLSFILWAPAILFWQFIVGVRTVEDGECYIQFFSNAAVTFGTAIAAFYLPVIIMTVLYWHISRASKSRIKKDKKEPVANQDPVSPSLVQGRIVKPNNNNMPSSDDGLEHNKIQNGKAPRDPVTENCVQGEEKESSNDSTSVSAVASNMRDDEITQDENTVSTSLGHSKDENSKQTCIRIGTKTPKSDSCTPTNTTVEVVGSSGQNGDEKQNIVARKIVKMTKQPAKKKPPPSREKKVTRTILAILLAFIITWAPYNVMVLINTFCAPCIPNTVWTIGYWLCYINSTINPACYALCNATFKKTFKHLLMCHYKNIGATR
Also: assay procedure not described here.

Sequence of Acetylcholinesterase (P22303 whole entry): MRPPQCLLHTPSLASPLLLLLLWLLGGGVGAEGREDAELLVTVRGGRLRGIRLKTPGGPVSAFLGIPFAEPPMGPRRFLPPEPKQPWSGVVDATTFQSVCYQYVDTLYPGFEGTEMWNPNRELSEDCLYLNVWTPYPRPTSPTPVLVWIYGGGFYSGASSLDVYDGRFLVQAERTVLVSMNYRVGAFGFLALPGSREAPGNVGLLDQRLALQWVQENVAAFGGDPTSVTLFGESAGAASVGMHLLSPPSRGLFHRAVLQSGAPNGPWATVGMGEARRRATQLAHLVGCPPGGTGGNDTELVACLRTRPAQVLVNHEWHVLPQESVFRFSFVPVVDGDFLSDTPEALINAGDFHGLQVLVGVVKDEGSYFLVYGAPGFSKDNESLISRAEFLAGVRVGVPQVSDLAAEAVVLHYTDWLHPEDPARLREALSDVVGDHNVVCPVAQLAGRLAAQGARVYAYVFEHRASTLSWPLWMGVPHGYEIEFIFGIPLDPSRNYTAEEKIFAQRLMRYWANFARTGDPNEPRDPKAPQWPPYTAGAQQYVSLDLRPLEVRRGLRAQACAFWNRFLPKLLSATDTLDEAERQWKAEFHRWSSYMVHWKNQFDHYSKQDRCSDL

Structure (SMILES)	AC50 (Acetylcholinesterase)	AC50 [1]	AC50 (D(3) dopamine receptor)	AC50 (Prothrombin)	AC50 (Histamine H3 receptor)	AC50 [2]	AC50 [3]	AC50 (Mu-type opioid receptor)	AC50 [4]	AC50 [5]	AC50 [6]	AC50 [7]	AC50 (Thromboxane A2 receptor [8])	AC50 (Thromboxane A2 receptor [9])	AC50 [10]
CN1CCC[C@@H]1Cc1c[nH]c2ccc(CCS(=O)(=O)c3ccccc3)cc12	> 30 µM	7.51 µM	> 30 µM	> 30 µM	5.7 µM	0.0214 µM	> 30 µM	8 µM	> 30 µM	> 30 µM	> 30 µM	> 30 µM	> 30 µM	> 30 µM	
COc1nccnc1NS(=O)(=O)c1ccc(N)cc1	> 30 µM	> 30 µM	> 30 µM	> 30 µM	> 30 µM	> 30 µM	> 30 µM	> 30 µM	> 30 µM	> 30 µM	> 30 µM	> 30 µM	> 30 µM	> 30 µM	> 30 µM
O=C(Nc1cccc2c(=O)cc(-c3nnn[nH]3)oc12)c1ccc(OCCCCc2ccccc2)cc1	> 30 µM	> 30 µM	4.45 µM	> 30 µM	> 30 µM	4.1 µM	> 30 µM	4.64 µM	> 30 µM	8.21 µM	26.7 µM	> 30 µM	> 30 µM	> 30 µM	> 30 µM
NC(=O)c1nc(F)c[nH]c1=O	> 30 µM	> 30 µM	> 30 µM	> 10 µM	> 30 µM	> 30 µM	> 30 µM	> 30 µM	> 30 µM	> 30 µM	> 30 µM	> 30 µM	> 30 µM	> 30 µM	> 30 µM
CN(C)CCCN1C(=O)c2cc([N+](=O)[O-])ccc2Oc2ccccc21	> 30 µM	28.4 µM	15 µM	> 30 µM	> 30 µM	4.17 µM	> 30 µM	> 30 µM	> 30 µM	> 30 µM	29.6 µM	> 30 µM	> 30 µM	> 30 µM	20.6 µM
O=S(=O)(O)CCS [2-MERCAPTOETHANESULFONIC ACID]	> 10 µM	> 30 µM	> 30 µM	> 30 µM	> 30 µM	> 30 µM	> 30 µM	> 30 µM	> 30 µM	9 µM	0.486 µM	0.78 µM	> 30 µM	> 30 µM	> 30 µM
CN(C)CCN(Cc1ccc(Cl)cc1)c1ccccn1 [CHLOROPYRAMINE]	> 30 µM	12.2 µM	1.35 µM	> 30 µM	> 30 µM	> 30 µM	> 30 µM	5.22 µM	> 30 µM	> 30 µM	> 30 µM	> 30 µM	> 30 µM	> 30 µM	2.88 µM
O=C(O)c1cc(=O)c2ccccc2o1 [CHROMOCARB]	> 30 µM	> 30 µM	> 30 µM	> 30 µM	> 30 µM	> 30 µM	> 30 µM	> 30 µM	> 30 µM	> 30 µM	23.9 µM	> 30 µM	> 30 µM	> 30 µM	> 30 µM
CN(CC(=O)O)C(=N)N [CREATINE]	> 30 µM	> 30 µM	> 30 µM	> 30 µM	> 30 µM	> 30 µM	> 30 µM	> 30 µM	> 30 µM	> 30 µM	> 30 µM	> 30 µM	> 30 µM	> 30 µM	> 30 µM
N[C@@H](CSSC[C@H](N)C(=O)O)C(=O)O [CYSTINE]	> 30 µM	> 30 µM	> 30 µM	> 30 µM	> 30 µM	> 30 µM	> 30 µM	> 30 µM	> 30 µM	> 30 µM	> 30 µM	> 30 µM	> 30 µM	> 30 µM	> 30 µM
C[C@]12CC[C@@H]3c4ccc(O)cc4CC[C@H]3[C@@H]1CC[C@@H]2OC(=O)CCC1CCCC1 [ESTRADIOL CYPIONATE]	> 30 µM	> 30 µM	> 30 µM	> 30 µM	> 30 µM	> 30 µM	> 30 µM	> 30 µM	12.5 µM	17.6 µM	4.37 µM	> 30 µM	> 30 µM	> 30 µM	> 30 µM
C[C@]12CCC(=O)C=C1CC[C@@H]1[C@@H]2[C@@H](O)C[C@@]2(C)[C@H]1CC[C@]2(O)C(=O)COC(=O)CCC(=O)O [HYDROCORTISONE HEMISUCCINATE ANHYDROUS]	> 30 µM	> 30 µM		> 30 µM	> 30 µM	> 30 µM	> 30 µM	> 30 µM	> 30 µM	> 30 µM	> 30 µM	> 30 µM	> 30 µM	> 30 µM	> 30 µM
CNC[C@H](O)c1cccc(O)c1 [PHENYLEPHRINE]	> 30 µM		4.68 µM	> 30 µM	> 30 µM	1.31 µM	> 30 µM	> 30 µM	> 30 µM	> 30 µM	> 30 µM	> 30 µM	> 30 µM	> 30 µM	> 30 µM
